Values joined by “and” are separate entries in the source; they are usually repeats but may differ in a detail not shown here. Equal values may be shown once. Results filed as inconclusive are left out. Active and inactive are the calls of the source. The rule behind the calls is not given here.
tested on: not listed separately; assay: inhibition of WNV in infected cells – cell-based, EC_2, dose response (AID 588372); settings: West Nile virus infected cells, antiviral inhibition; at 25 µM (top of the series)

SMILES	inhibition
Cn1c(NC(=O)CSc2nc3ccccc3c(=O)n2-c2ccccc2)nc2ccccc21	-2.29% (inactive)

same assay, conditions: West Nile virus infected cells, antiviral inhibition; at 50 µM (top of the series)

SMILES	inhibition
O=C(CSc1nc2ccccc2c(=O)n1-c1ccc(Cl)c(Cl)c1)NC1CCCc2ccccc21 (configuration not stated)	1.77% (inactive)
O=C(CSc1nc2ccccc2c(=O)n1-c1cc(Cl)cc(Cl)c1)Nc1cccc2c1CCC2	1.26% (inactive)
O=C(CSc1nc2ccccc2c(=O)n1-c1ccc(F)c(F)c1)Nc1nccs1	0% (inactive)
O=C(CSc1nc2ccccc2c(=O)n1-c1cc(F)c(F)c(F)c1)Nc1cccc2c1CCC2	5.49% (inactive)
O=C(CSc1nc2ccccc2c(=O)n1-c1cc(F)c(F)c(F)c1)NC1CCCc2ccccc21 (configuration not stated)	-0.6% (inactive)
O=C(CSc1nc2ccccc2c(=O)n1-c1ccc(Cl)c(Cl)c1)NC1Cc2ccccc2C1	-0.66% (inactive)
O=C(CSc1nc2ccccc2c(=O)n1-c1cc(Cl)cc(Cl)c1)Nc1ccc2c(c1)OCO2	-2.43% (inactive)
O=C(CSc1nc2ccccc2c(=O)n1-c1cc(Cl)cc(Cl)c1)NC1CCCc2ccccc21 (configuration not stated)	1.62% (inactive)
O=C(CSc1nc2ccccc2c(=O)n1-c1ccc(Cl)c(Cl)c1)Nc1nc2ccc([N+](=O)[O-])cc2s1	-1.43% (inactive)
Cn1c(NC(=O)CSc2nc3ccccc3c(=O)n2-c2ccc(Cl)c(Cl)c2)nc2ccccc21	-1.28% (inactive)
O=C(CSc1nc2ccccc2c(=O)n1-c1cc(F)c(F)c(F)c1)NC1Cc2ccccc2C1	0.07% (inactive)
Cc1nc2cc(NC(=O)CSc3nc4ccccc4c(=O)n3-c3ccc(Cl)c(Cl)c3)ccc2s1	0.29% (inactive)
O=C(CSc1nc2ccccc2c(=O)n1-c1ccc(Cl)c(Cl)c1)NC1CCc2ccccc21 (configuration not stated)	5.24% (inactive)

same assay, conditions: West Nile virus infected cells, antiviral inhibition; at 100 µM (top of the series)

SMILES	inhibition
O=C(COc1nc2ccccc2c(=O)n1-c1ccccc1)Nc1ccc2c(c1)CCC2	5.92% (inactive)
O=C(CSc1nc2ccccc2c(=O)n1-c1ccc(F)c(F)c1)Nc1cccc2c1CCC2	0% (inactive)
O=C(CSc1nc2ccccc2c(=O)n1-c1ccc(Cl)c(Cl)c1)N1CCCCCC1	1.13% (inactive)
Cc1csc(NC(=O)CSc2nc3ccccc3c(=O)n2-c2ccc(Cl)c(Cl)c2)n1	-0.04% (inactive)
O=C(CSc1nc2ccccc2c(=O)n1-c1cc(F)c(F)c(F)c1)Nc1ccc2c(c1)OCO2	3.29% (inactive)
O=C(CCCCSc1nc2ccccc2c(=O)n1-c1ccc(F)c(F)c1)Nc1ccc2c(c1)CCC2	0.53% (inactive)
O=C(CSc1nc2ccccc2c(=O)n1-c1ccc(F)c(F)c1)Nc1cccc2ccccc12	-1.02% (inactive)
O=C(CCSc1nc2ccccc2c(=O)n1-c1ccc(F)c(F)c1)Nc1ccc2c(c1)CCC2	-1.31% (inactive)
O=C(CSc1nc2ccccc2c(=O)n1-c1ccc(F)c(Cl)c1)Nc1ccc2c(c1)OCO2	-0.94% (inactive)
O=C(CSc1nc2ccccc2c(=O)n1-c1ccc(Cl)c(Cl)c1)Nc1cccc(-c2ccccc2)c1	-1.24% (inactive)
O=C(CSc1nc2ccccc2c(=O)n1-c1ccc(Cl)c(Cl)c1)Nc1ncc([N+](=O)[O-])s1	0.32% (inactive)
O=C(CSc1nc2ccccc2c(=O)n1-c1ccc(F)c(Cl)c1)Nc1nccs1	7.09% (inactive)
O=C(CCSc1nc2ccccc2c(=O)n1-c1ccc(F)c(Cl)c1)Nc1ccc2c(c1)CCC2	-1.01% (inactive)
O=C(CCCCSc1nc2ccccc2c(=O)n1-c1cc(Cl)cc(Cl)c1)Nc1ccc2c(c1)CCC2	0.66% (inactive)
O=C(CCCCSc1nc2ccccc2c(=O)n1-c1ccc(F)c(Cl)c1)Nc1ccc2c(c1)CCC2	0.07% (inactive)
O=C(CCCCSc1nc2ccccc2c(=O)n1-c1ccc(Cl)c(Cl)c1)Nc1ccc2c(c1)CCC2	3.07% (inactive)
O=C(CSc1nc2ccccc2c(=O)n1-c1ccc(Cl)c(Cl)c1)Nc1ccc2scnc2c1	0.04% (inactive)

SMILES	inhibition
O=C(CCCCSc1nc2ccccc2c(=O)n1-c1cc(F)c(F)c(F)c1)Nc1ccc2c(c1)CCC2	11.5% (inactive)
O=C(CSc1nc2ccccc2c(=O)n1-c1ccc(F)c(Cl)c1)NC1Cc2ccccc2C1	-1.39% (inactive)
O=C(CSc1nc2ccccc2c(=O)n1-c1cc(F)c(F)c(F)c1)Nc1nccs1	6.14% (inactive)
O=C(CSc1nc2ccccc2c(=O)n1-c1cc(F)c(F)c(F)c1)Nc1cccc2ccccc12	-1.52% (inactive)
Cc1cnc(NC(=O)CSc2nc3ccccc3c(=O)n2-c2ccc(Cl)c(Cl)c2)s1	-0.85% (inactive)
O=C(CSc1nc2ccccc2c(=O)n1-c1ccc(Cl)c(Cl)c1)Nc1nc2cc(Cl)ccc2o1	6.36% (inactive)
O=C(CCSc1nc2ccccc2c(=O)n1-c1cc(Cl)cc(Cl)c1)Nc1ccc2c(c1)CCC2	1.02% (inactive)
O=C(CSc1nc2ccccc2c(=O)n1-c1ccc(F)c(Cl)c1)Nc1cccc2ccccc12	-0.86% (inactive)
O=C(CSc1nc2ccccc2c(=O)n1-c1ccc(F)c(Cl)c1)NC1CCc2ccccc21 (configuration not stated)	1.01% (inactive)
O=C(CSc1nc2ccccc2c(=O)n1-c1ccc(F)c(Cl)c1)NC1CCCc2ccccc21 (configuration not stated)	-0.04% (inactive)
O=C(CCCSc1nc2ccccc2c(=O)n1-c1ccc(Cl)c(Cl)c1)Nc1ccc2c(c1)CCC2	-0.7% (inactive)
O=C(CSc1nc2ccccc2c(=O)n1-c1ccc(F)c(Cl)c1)Nc1cccc2c1CCC2	-0.11% (inactive)
O=C(CSc1nc2ccccc2c(=O)n1-c1ccc(Cl)c(Cl)c1)Nc1nc(-c2ccccc2)cs1	0.46% (inactive)
O=C(CSc1nc2ccccc2c(=O)n1-c1ccc(F)c(F)c1)NC1Cc2ccccc2C1	-0.73% (inactive)
O=C(CSc1nc2ccccc2c(=O)n1-c1ccc(F)c(F)c1)Nc1ccc2c(c1)OCO2	-1.66% (inactive)
O=C(CSc1nc2ccccc2c(=O)n1-c1ccc(F)c(F)c1)NC1CCCc2ccccc21 (configuration not stated)	-0.29% (inactive)

tested on: West Nile virus infected cells, antiviral inhibition; assay: as above; settings: not given

SMILES	IC50
O=C(CSc1nc2ccccc2c(=O)n1-c1ccc(F)c(Cl)c1)Nc1ccc2c(c1)CCC2	9.05 µM
O=C(CSc1nc2ccccc2c(=O)n1-c1cc(Cl)cc(Cl)c1)Nc1ccc2c(c1)CCC2	2.1 µM
O=C(CSc1nc2ccccc2c(=O)n1-c1ccccc1)Nc1ccc2c(c1)CCC2	6.51 µM and 33.3 µM
O=C(CSc1nc2ccccc2c(=O)n1-c1cc(F)c(F)c(F)c1)Nc1ccc2c(c1)CCC2	5.27 µM
O=C(CSc1nc2ccccc2c(=O)n1-c1ccc(F)c(F)c1)Nc1ccc2c(c1)CCC2	5.72 µM

From PubChem BioAssay AID588372 (Southern Research Specialized Biocontainment Screening …, 2011)
